Data as given in patent US5081225A, “Gram-positive and gram-negative antibacterial compounds from the microorganism, Janthinobacterium lividum” (E. R. Squibb & Sons, Inc., priority 1989, dated 1992).

How the values were obtained:
[1] = tested on: Klebsiella aerogenes; test: agar dilution MIC, aerobic organisms; conditions: Table 1; Klebsiella aerogenes SC 10440
[2] = tested on: Nocardia asteroides; test: agar dilution MIC, aerobic organisms; conditions: Table 2; Nocardia asteroides SC 2626
[3] = tested on: Klebsiella pneumoniae; test: agar dilution MIC, aerobic organisms; conditions: Table 1; Klebsiella pneumoniae SC 9527
[4] = tested on: Proteus rettgeri; test: agar dilution MIC, aerobic organisms; conditions: Table 1; Proteus rettgeri SC 8479
[5] = tested on: Enterobacter aerogenes; test: agar dilution MIC, aerobic organisms; conditions: Table 1; Enterobacter aerogenes SC 10078
[6] = stability under acidic conditions (observed during isolation); assay type: physicochemical
Description: The methanol extract is added to MCI GEL CHP20P™ (CHP20P) in water and the mixture is stirred for one hour. The charged resin is collected by vacuum filtration and washed with methanol, water, and acetonitrile. The charged resin is then packed in a column and the antibiotics are eluted with acetonitrile-water-formic acid. Further purification is achieved by chromatography on SEPHADEX LH-20™ in acetonitrile-water. Partial resolution of the three antibiotics, janthinocin A, B, and C, is effected by chromatography on CHP20P eluting with a gradient of acetonitrile-water-formic acid. Final separation and purification of janthinocins B and C is achieved by chromaography on CHP20P eluting with an acetonitrile-aqueous ammonium dihydrogen phosphate buffer gradient, followed by desalting on CHP20P, eluting with acetonitrile-water-formic acid, to give the pure antibiotics as off white powders. […] When janthinocin C is present, it co-elutes with janthinocin B in each of the initial chromatographies.

[7] = tested on: Salmonella typhosa; test: agar dilution MIC, aerobic organisms; conditions: Table 1; Salmonella typhosa SC 1195
[8] = tested on: Bacillus subtilis; test: agar dilution MIC, aerobic organisms; conditions: Table 2; Bacillus subtilis SC 3777
[9] = tested on: Streptococcus agalactiae; test: agar dilution MIC, aerobic organisms
[10] = tested on: Streptococcus faecalis; test: agar dilution MIC, aerobic organisms
[11] = tested on: Proteus mirabilis; test: agar dilution MIC, aerobic organisms; conditions: Table 1; Proteus mirabilis SC 3855
[12] = tested on: Serratia marcescens; test: agar dilution MIC, aerobic organisms; conditions: Table 1; Serratia marcescens SC 9783
[13] = tested on: Citrobacter freundii; test: agar dilution MIC, aerobic organisms; conditions: Table 1; Citrobacter freundii SC 9518
[14] = tested on: Staphylococcus epidermidis; test: agar dilution MIC, aerobic organisms; conditions: Table 2
[15] = tested on: Pseudomonas aeruginosa; test: agar dilution MIC, aerobic organisms; conditions: Table 1
[16] = tested on: Staphylococcus saprophyticus; test: agar dilution MIC, aerobic organisms; conditions: Table 2; Staphylococcus saprophyticus SC 12875
[17] = agar dilution MIC, aerobic organisms; conditions: Table 2; Nocardia monocytogenes SC 8523
[18] = tested on: Enterobacter cloacae; test: agar dilution MIC, aerobic organisms; conditions: Table 1; Enterobacter cloacae SC 8236
[19] = tested on: Escherichia coli; test: agar dilution MIC, aerobic organisms; conditions: Table 1
[20] = tested on: Micrococcus luteus; test: agar dilution MIC, aerobic organisms; conditions: Table 1; Micrococcus luteus SC 2495
[21] = tested on: Staphylococcus aureus; test: agar dilution MIC, aerobic organisms
[22] = tested on: Acinetobacter calcoaceticus; test: agar dilution MIC, aerobic organisms; conditions: Table 1; Acinetobacter calcoaceticus SC 8333
[23] = tested on: Proteus vulgaris; test: agar dilution MIC, aerobic organisms; conditions: Table 1; Proteus vulgaris SC 9416
[24] = tested on: Shigella sonnei; test: agar dilution MIC, aerobic organisms; assay type: cell-based; conditions: Table 1; Shigella sonnei SC 8449
Excerpt: The composition of K-10 agar was:

[25] = Table 1, Streptococcus agalactiae SC 9287
[26] = Table 2, Streptococcus agalactiae SC 9285
[27] = Table 2, Streptococcus agalactiae SC 9287
[28] = Table 1, Streptococcus faecalis SC 9011
[29] = Table 2, Streptococcus faecalis SC 9011
[30] = Table 2, Streptococcus faecalis SC 9376
[31] = Table 2, Streptococcus faecalis SC 10938
[32] = Staphylococcus epidermidis SC 9052 (Penicillin S)
[33] = Staphylococcus epidermidis SC 9083 (Penicillin R)
[34] = Staphylococcus epidermidis SC 9087 (Penicillin R)
[35] = Staphylococcus epidermidis SC 9607 (Penicillin R)
[36] = Staphylococcus epidermidis SC 10547 (Penicillin R)
[37] = Table 1, Staphylococcus aureus SC 1276
[38] = Table 1, Staphylococcus aureus SC 2399
[39] = Table 1, Staphylococcus aureus SC 2400
[40] = Table 1, Staphylococcus aureus SC 10165
[41] = Table 2, Staphylococcus aureus SC 2399 (Penicillin S)
[42] = Table 2, Staphylococcus aureus SC 2400 (Penicillin R)
[43] = Table 2, Staphylococcus aureus SC 3184 (Methicillin R)
[44] = Table 2, Staphylococcus aureus SC 9593 (Penicillin R)
[45] = Table 2, Staphylococcus aureus SC 9998 (Penicillin R)
[46] = Table 2, Staphylococcus aureus SC 10014 (Methicillin R)
[47] = Table 2, Staphylococcus aureus SC 10016 (Tetracycline R)
[48] = Table 2, Staphylococcus aureus SC 10020 (Methicillin R)
[49] = Table 2, Staphylococcus aureus SC 10820 (Erythromycin R)
[50] = Table 2, Staphylococcus aureus SC 11239 (Gentamicin R)
[51] = Table 2, Staphylococcus aureus SC 12691 (Erythromycin R)

janthinocin A
MIC [1]: 25 µg/mL
MIC [2]: 0.8 µg/mL
MIC [3]: 25 µg/mL
MIC [4]: 50 µg/mL
MIC [5]: 25 µg/mL
chemical stability [6]: converted to janthinocin C under acidic conditions
MIC [7]: 12.5 µg/mL
MIC [8]: 0.4 µg/mL
MIC [9, 25]: 0.2 µg/mL
MIC [9, 26]: 0.4 µg/mL
MIC [9, 27]: 0.4 µg/mL
MIC [10, 28]: 1.6 µg/mL
MIC [10, 29]: 0.8 µg/mL
MIC [10, 30]: 0.8 µg/mL
MIC [10, 31]: 1.6 µg/mL
MIC [11]: 100 µg/mL
MIC [12]: 25 µg/mL
MIC [13]: 25 µg/mL
MIC [14, 32]: 0.8 µg/mL
MIC [14, 33]: 0.8 µg/mL
MIC [14, 34]: 0.8 µg/mL
MIC [14, 35]: 0.4 µg/mL
MIC [14, 36]: 0.8 µg/mL
MIC ([15]; Pseudomonas aeruginosa SC 8329): 100 µg/mL
MIC ([15]; Pseudomonas aeruginosa SC 9545): 50 µg/mL
MIC [16]: 0.8 µg/mL
MIC [17]: 0.8 µg/mL
MIC [18]: 25 µg/mL
MIC ([19]; Escherichia coli SC 8294): 25 µg/mL
MIC ([19]; Escherichia coli SC 10896): 6.3 µg/mL
MIC ([19]; Escherichia coli SC 10909): 6.3 µg/mL
MIC [20]: 0.2 µg/mL
MIC [21, 37]: 0.8 µg/mL
MIC [21, 38]: 1.6 µg/mL
MIC [21, 39]: 1.6 µg/mL
MIC [21, 40]: 1.6 µg/mL
MIC [21, 41]: 0.8 µg/mL
MIC [21, 42]: 0.4 µg/mL
MIC [21, 43]: 1.6 µg/mL
MIC [21, 44]: 0.8 µg/mL
MIC [21, 45]: 0.8 µg/mL
MIC [21, 46]: 0.4 µg/mL
MIC [21, 47]: 0.2 µg/mL
MIC [21, 48]: 0.4 µg/mL
MIC [21, 49]: 0.8 µg/mL
MIC [21, 50]: 0.8 µg/mL
MIC [21, 51]: 0.4 µg/mL

janthinocin B
MIC [1]: 50 µg/mL
MIC [2]: 3.1 µg/mL
MIC [3]: 25 µg/mL
MIC [4]: 100 µg/mL
MIC [22]: 25 µg/mL
MIC [5]: 50 µg/mL
MIC [7]: 12.5 µg/mL
MIC [8]: 0.1 µg/mL
MIC [9, 25]: < 0.05 µg/mL
MIC [9, 26]: < 0.05 µg/mL
MIC [9, 27]: < 0.05 µg/mL
MIC [10, 28]: 1.6 µg/mL
MIC [10, 29]: 1.6 µg/mL
MIC [10, 30]: 1.6 µg/mL
MIC [10, 31]: 0.8 µg/mL
MIC [11]: 100 µg/mL
MIC [12]: 50 µg/mL
MIC [13]: 25 µg/mL
MIC [14, 32]: 0.4 µg/mL
MIC [14, 33]: 0.4 µg/mL
MIC [14, 34]: 0.4 µg/mL
MIC [14, 35]: 0.4 µg/mL
MIC [14, 36]: 0.4 µg/mL
MIC ([15]; Pseudomonas aeruginosa SC 8329): 100 µg/mL
MIC ([15]; Pseudomonas aeruginosa SC 9545): 50 µg/mL
MIC [16]: 0.4 µg/mL
MIC [17]: 1.6 µg/mL
MIC [18]: 50 µg/mL
MIC ([19]; Escherichia coli SC 8294): 25 µg/mL
MIC ([19]; Escherichia coli SC 10896): 6.3 µg/mL
MIC ([19]; Escherichia coli SC 10909): 6.3 µg/mL
MIC [20]: 0.2 µg/mL
MIC [21, 37]: 0.4 µg/mL
MIC [21, 38]: 1.6 µg/mL
MIC [21, 39]: 1.6 µg/mL
MIC [21, 40]: 0.8 µg/mL
MIC [21, 41]: 0.4 µg/mL
MIC [21, 42]: 0.8 µg/mL
MIC [21, 43]: 0.4 µg/mL
MIC [21, 44]: 0.4 µg/mL
MIC [21, 45]: 0.1 µg/mL
MIC [21, 46]: 0.4 µg/mL
MIC [21, 47]: 0.4 µg/mL
MIC [21, 48]: 0.4 µg/mL
MIC [21, 49]: 0.2 µg/mL
MIC [21, 50]: 0.2 µg/mL
MIC [21, 51]: 0.4 µg/mL

janthinocin C
MIC [1]: 100 µg/mL
MIC [3]: > 100 µg/mL
MIC [4]: > 100 µg/mL
MIC [22]: 25 µg/mL
MIC [5]: > 100 µg/mL
MIC [7]: 100 µg/mL
MIC [9, 25]: 0.8 µg/mL
MIC [10, 28]: 12.5 µg/mL
MIC [11]: > 100 µg/mL
MIC [23]: > 100 µg/mL
MIC [12]: > 100 µg/mL
MIC [13]: 100 µg/mL
MIC [24]: 100 µg/mL
MIC ([15]; Pseudomonas aeruginosa SC 8329): > 100 µg/mL
MIC ([15]; Pseudomonas aeruginosa SC 9545): > 100 µg/mL
MIC [18]: > 100 µg/mL
MIC ([19]; Escherichia coli SC 8294): > 100 µg/mL
MIC ([19]; Escherichia coli SC 10857): 50 µg/mL
MIC ([19]; Escherichia coli SC 10896): 50 µg/mL
MIC ([19]; Escherichia coli SC 10909): 25 µg/mL
MIC [20]: 1.6 µg/mL
MIC [21, 37]: 1.6 µg/mL
MIC [21, 38]: 3.1 µg/mL
MIC [21, 39]: 3.1 µg/mL
MIC [21, 40]: 1.6 µg/mL
